Data: patent publication EP4752152A1, “STEROID COMPOUND, AND PREPARATION METHOD THEREFOR AND USE THEREOF” (Cholesgen (Shanghai) Co.Ltd., priority 2023, dated 2025)

System: SREBP pathway
Experiment: SREBP luciferase reporter gene system (SRE-luciferase assay)
Type: cell-based, human
Details: Huh-7/SRE-luc cells, sterol-deficient medium, 0.01-10 µM
Procedure: Huh-7/SRE-luc cells were incubated in sterol-deficient medium (5% lipoprotein deficient serum, 2 µM lovastatin, 10 µM mevalonic acid) with corresponding concentrations of compounds for 16 hours. The Huh-7/SRE-luc cells were human hepatoma cell line Huh-7 stably expressing LDLR promotor-luciferase and green fluorescent protein (GFP). These cells were obtained by transfecting Huh-7 with pLDLR-promotor-luciferase and pEGFP-N1 plasmids, followed by screening under G418 antibiotic selection pressure. The Huh-7 cells were purchased from ATCC, the pLDLR-promotor-luciferase plasmid was obtained by molecular cloning methods, and the pEGFP-N1 plasmid was purchased from Addgene.
After compound treatment, the cells were lysed with lysis buffer (E397A, Promega). After the addition of luciferase substrate (E1500, Promega), the activity of SRE-driven luciferase was measured using a BioTek Synergy HTX microplate reader (including but not limited to this type of instrument). The fluorescence intensity of green fluorescent protein (EGFP) was also measured using the above BioTek microplate reader (including but not limited to this type of instrument) and served as an internal control. The ratio of SRE-driven luciferase activity divided by the fluorescence intensity of green fluorescent protein was used as an indicator of SREBP pathway activity. The test data for each test compound were analyzed using Prism software (with the DMSO-treated group as the reference to calculate the compound inhibition rate, fitted using the Prism log(inhibitor) vs. response--Variable slope (four-parameter) model, calculation formula: Y = Bottom + (Top - Bottom)/(1 + 10^((LogIC50 - X) × HillSlope))), to obtain the IC50 parameters of the compounds.
Using the method described in 1.1, the inhibitory effect of the compounds of the present disclosure on the SREBP pathway was tested. The concentration gradient for each compound was designed as 0.01, 0.03, 0.1, 0.3, 1.0, 3.0, and 10 µM, with the vehicle DMSO as the control.

## COc1nc(C(O)CCC[C@@H](C)[C@H]2CC[C@H]3[C@H]4[C@H](CC[C@]23C)[C@@]2(C)CC[C@H](O)[C@H](O)[C@@H]2CC4(F)F)cs1 (single isomer, unassigned) [Compound 220, (1R,3aS,3bS,5aR,6R,7S,9aR,9bS,11aR)-4,4-difluoro-1-[(2R,6R)-6-hydroxy-6-(2-methoxy-1,3-thiazol-4-yl)hexan-2-yl]-9a,11a-dimethylhexadecahydro-1H-cyclopenta[1,2-a]phenanthrene-6,7-diol or (1R,3aS,3bS,5aR,6R,7S,9aR,9bS,11aR)-4,4-difluoro-1-[(2R,6S)-6-hydroxy-6-(2-methoxy-1,3-thiazol-4-yl)hexan-2-yl]-9a,11a-dimethylhexadecahydro-1H-cyclopenta[1,2-a]phenanthrene-6,7-diol]
16 hours
  IC50: 0.04 µM

## COc1nc(C(O)CCC[C@@H](C)[C@H]2CC[C@H]3[C@H]4[C@H](CC[C@]23C)[C@@]2(C)CC[C@H](O)[C@H](O)[C@@H]2CC4(F)F)cs1 (single isomer, unassigned) [Compound 221, (1R,3aS,3bS,5aR,6R,7S,9aR,9bS,11aR)-4,4-difluoro-1-[(2R,6S)-6-hydroxy-6-(2-methoxy-1,3-thiazol-4-yl)hexan-2-yl]-9a,11a-dimethylhexadecahydro-1H-cyclopenta[1,2-a]phenanthrene-6,7-diol or (1R,3aS,3bS,5aR,6R,7S,9aR,9bS,11aR)-4,4-difluoro-1-[(2R,6R)-6-hydroxy-6-(2-methoxy-1,3-thiazol-4-yl)hexan-2-yl]-9a,11a-dimethylhexadecahydro-1H-cyclopenta[1,2-a]phenanthrene-6,7-diol]
16 hours
  IC50: 0.183 µM

## COc1cc(F)cc(OC)c1C(O)CCC[C@@H](C)[C@H]1CC[C@H]2[C@H]3[C@H](CC[C@]12C)[C@@]1(C)CC[C@H](O)[C@H](O)[C@@H]1CC3(F)F (single isomer, unassigned) [Compound 222, (1R,3aS,3bS,5aR,6R,7S,9aR,9bS,11aR)-4,4-difluoro-1-[(2R,6S)-6-(4-fluoro-2,6-dimethoxyphenyl)-6-hydroxyhexan-2-yl]-9a,11a-dimethylhexadecahydro-1H-cyclopenta[1,2-a]phenanthrene-6,7-diol or (1R,3aS,3bS,5aR,6R,7S,9aR,9bS,11aR)-4,4-difluoro-1-[(2R,6R)-6-(4-fluoro-2,6-dimethoxyphenyl)-6-hydroxyhexan-2-yl]-9a,11a-dimethylhexadecahydro-1H-cyclopenta[1,2-a]phenanthrene-6,7-diol]
Homo sapiens, Huh-7, 16 h
  IC50: 0.137 µM

## COc1cc(F)cc(OC)c1C(O)CCC[C@@H](C)[C@H]1CC[C@H]2[C@H]3[C@H](CC[C@]12C)[C@@]1(C)CC[C@H](O)[C@H](O)[C@@H]1CC3(F)F (single isomer, unassigned) [Compound 225, (1R,3aS,3bS,5aR,6R,7S,9aR,9bS,11aR)-4,4-difluoro-1-[(2R,6R)-6-(4-fluoro-2,6-dimethoxyphenyl)-6-hydroxyhexan-2-yl]-9a,11a-dimethylhexadecahydro-1H-cyclopenta[1,2-a]phenanthrene-6,7-diol or (1R,3aS,3bS,5aR,6R,7S,9aR,9bS,11aR)-4,4-difluoro-1-[(2R,6S)-6-(4-fluoro-2,6-dimethoxyphenyl)-6-hydroxyhexan-2-yl]-9a,11a-dimethylhexadecahydro-1H-cyclopenta[1,2-a]phenanthrene-6,7-diol]
16 hours
  IC50: 0.175 µM

## C[C@H](CCCC(O)c1ccc(F)nc1F)[C@H]1CC[C@H]2[C@H]3[C@H](CC[C@]12C)[C@@]1(C)CC[C@H](O)[C@H](O)[C@@H]1CC3(F)F (single isomer, unassigned) [Compound 226, (1R,3aS,3bS,5aR,6R,7S,9aR,9bS,11aR)-1-[(2R,6S)-6-(2,6-difluoropyridin-3-yl)-6-hydroxyhexan-2-yl]-4,4-difluoro-9a,11a-dimethylhexadecahydro-1H-cyclopenta[1,2-a]phenanthrene-6,7-diol or (1R,3aS,3bS,5aR,6R,7S,9aR,9bS,11aR)-1-[(2R,6R)-6-(2,6-difluoropyridin-3-yl)-6-hydroxyhexan-2-yl]-4,4-difluoro-9a,11a-dimethylhexadecahydro-1H-cyclopenta[1,2-a]phenanthrene-6,7-diol]
16 hours
  IC50: 0.1 µM

## COc1ncc(F)cc1[C@@H](O)CCC[C@@H](C)[C@H]1CC[C@H]2[C@H]3[C@H](CC[C@]12C)[C@@]1(C)CC[C@H](O)[C@H](O)[C@@H]1CC3(F)F (single isomer, unassigned) [Compound 228]
Homo sapiens, Huh-7, 16 h
  IC50: 1.42 µM

## COc1ccnc(F)c1[C@@H](O)CCC[C@@H](C)[C@H]1CC[C@H]2[C@H]3[C@H](CC[C@]12C)[C@@]1(C)CC[C@H](O)[C@H](O)[C@@H]1CC3(F)F (single isomer, unassigned) [Compound 229]
Homo sapiens, Huh-7, 16 h
  IC50: 0.049 µM

## COc1ncc(F)cc1[C@H](O)CCC[C@@H](C)[C@H]1CC[C@H]2[C@H]3[C@H](CC[C@]12C)[C@@]1(C)CC[C@H](O)[C@H](O)[C@@H]1CC3(F)F (single isomer, unassigned) [Compound 231]
Homo sapiens, Huh-7, 16 h
  IC50: 0.062 µM

## COc1cc(OC)c([C@H](O)CCC[C@@H](C)[C@H]2CC[C@H]3[C@H]4[C@H](CC[C@]23C)[C@@]2(C)CC[C@H](O)[C@H](O)[C@@H]2CC4(F)F)c(F)n1 (single isomer, unassigned) [Compound 235]
Homo sapiens, Huh-7, 16 h
  IC50: 0.115 µM

## COc1cc(F)c([C@@H](O)CCC[C@@H](C)[C@H]2CC[C@H]3[C@H]4[C@H](CC[C@]23C)[C@@]2(C)CC[C@H](O)[C@H](O)[C@@H]2CC4(F)F)c(F)n1 (single isomer, unassigned) [Compound 238]
Homo sapiens, Huh-7, 16 h
  IC50: 0.289 µM

## COc1ccc(C(O)CCC[C@@H](C)[C@H]2CC[C@H]3[C@H]4[C@H](CC[C@]23C)[C@@]2(C)CC[C@H](O)[C@H](O)[C@@H]2CC4(F)F)c(F)n1 (single isomer, unassigned) [Compound 242, (1R,3aS,3bS,5aR,6R,7S,9aR,9bS,11aR)-4,4-difluoro-1-[(2R,6S)-6-(2-fluoro-6-methoxypyridin-3-yl)-6-hydroxyhexan-2-yl]-9a,11a-dimethylhexadecahydro-1H-cyclopenta[1,2-a]phenanthrene-6,7-diol or (1R,3aS,3bS,5aR,6R,7S,9aR,9bS,11aR)-4,4-difluoro-1-[(2R,6R)-6-(2-fluoro-6-methoxypyridin-3-yl)-6-hydroxyhexan-2-yl]-9a,11a-dimethylhexadecahydro-1H-cyclopenta[1,2-a]phenanthrene-6,7-diol]
16 hours
  IC50: 0.205 µM

## C[C@H](CCCC(O)c1cccc2cnn(C)c12)[C@H]1CC[C@H]2[C@H]3[C@H](CC[C@]12C)[C@@]1(C)CC[C@H](O)[C@H](O)[C@@H]1CC3(F)F (single isomer, unassigned) [Compound 243, (1R,3aS,3bS,5aR,6R,7S,9aR,9bS,11aR)-4,4-difluoro-1-[(2R,6S)-6-hydroxy-6-(1-methylindazol-7-yl)hexan-2-yl]-9a,11a-dimethylhexadecahydro-1H-cyclopenta[1,2-a]phenanthrene-6,7-diol or (1R,3aS,3bS,5aR,6R,7S,9aR,9bS,11aR)-4,4-difluoro-1-[(2R,6R)-6-hydroxy-6-(1-methylindazol-7-yl)hexan-2-yl]-9a,11a-dimethylhexadecahydro-1H-cyclopenta[1,2-a]phenanthrene-6,7-diol]
16 hours
  IC50: 0.134 µM

## C[C@H](CCC[C@H](O)c1cccc2cnn(C)c12)[C@H]1CC[C@H]2C3=C(F)C[C@H]4[C@@H](O)[C@@H](O)CC[C@]4(C)[C@H]3CC[C@]12C (single isomer, unassigned) [Compound 245]
Homo sapiens, Huh-7, 16 h
  IC50: 0.159 µM

## C[C@H](CCC[C@@H](O)c1cccc2cnn(C)c12)[C@H]1CC[C@H]2C3=C(F)C[C@H]4[C@@H](O)[C@@H](O)CC[C@]4(C)[C@H]3CC[C@]12C (single isomer, unassigned) [Compound 246]
Homo sapiens, Huh-7, 16 h
  IC50: 0.139 µM

## COc1cc(C(O)CCC[C@@H](C)[C@H]2CC[C@H]3[C@H]4[C@H](CC[C@]23C)[C@@]2(C)CC[C@H](O)[C@H](O)[C@@H]2CC4(F)F)cc(F)n1 (single isomer, unassigned) [Compound 247, (1R,3aS,3bS,5aR,6R,7S,9aR,9bS,11aR)-4,4-difluoro-1-[(2R,6S)-6-(6-fluoro-2-methoxypyridin-4-yl)-6-hydroxyhexan-2-yl]-9a,11a-dimethylhexadecahydro-1H-cyclopenta[1,2-a]phenanthrene-6,7-diol or (1R,3aS,3bS,5aR,6R,7S,9aR,9bS,11aR)-4,4-difluoro-1-[(2R,6R)-6-(6-fluoro-2-methoxypyridin-4-yl)-6-hydroxyhexan-2-yl]-9a,11a-dimethylhexadecahydro-1H-cyclopenta[1,2-a]phenanthrene-6,7-diol]
Homo sapiens, Huh-7, 16 h
  IC50: 0.04 µM
